According to US20070202512A1, “Human single nucleotide polymorphisms associated with dose-dependent weight gain and methods of use thereof” (Bristol-Myers Squibb Company, priority 2005, published 2007):

What was measured:
[1] = Phase II clinical trial CV168-006: weight gain by PPAR-alpha SNP1 (Leu162Val) genotype; assay type: in vivo, human
Procedure: Genomic DNA samples from patients enrolled in a Bristol-Myers Squibb Company Phase II clinical trial CV168-006 trial were genotyped for 1 SNP identified in the human PPAR-alpha gene (see Example 1) and evaluated for association with weight gain.
(§1) 498 subjects enrolled in the CV168-006 trial were analyzed in this study. All analyses were based on data collected up to 24 weeks, which was the duration of the short-term phase of the trials. DNA was extracted from frozen blood by a third-party (Genaissance Inc, North Carolina) using a salting-out method (Gentra Systems). All subjects gave written informed consent.
(§2) Genotyping was performed using the 5′ nuclease assay, essentially as described (Ranade K et al., Genome Research 11: 1262-1268 (2001); which is hereby incorporated by reference herein in its entirety), with the following modifications: six nanograms of genomic DNA were used in a 8 ul reaction. All PCR reactions were performed in an ABI 9700 machine and fluorescence was measured using an ABI 7900 machine.
The association between weight gain and the single nucleotide polymorphisms of the present invention were investigated by applying statistical analysis to the results of the genotyping assays described elsewhere herein. […]
Statistical Analyses. The influence of the SNP on weight gain was assessed using ANOVA. […]

[2] = Phase II clinical trial CV168-006: weight gain by GRL SNP1 (Asn363Ser) genotype; assay type: in vivo, human; details: patients treated with 20 mg in CV168-006; data up to 24 weeks
Procedure: (§3) Genomic DNA samples from patients enrolled in two Bristol-Myers Squibb Company Phase II clinical trial CV168-006 were genotyped for 1 SNP identified in the human GRL gene (see Example 7) and evaluated for association with weight gain.
as §1
(§4) The influence on SNP1 on weight gain and the probability of achieving lower levels of glycosylated hemoglobin (HbA1C) was assessed using ANOVA (GRL; P=0.005; P=0.007; respectively).
as §2, with “machine. […]” for “machine.”
(§5) Statistical Analyses. The influence of the SNP on weight gain and decreased glycosylated hemoglobin (HbA1C) was assessed using ANOVA. […]

[3] = test system: glycosylated hemoglobin (HbA1C); experiment: Phase II clinical trial CV168-006: glycosylated hemoglobin (HbA1C) by GRL SNP1 (Asn363Ser) genotype; assay type: in vivo, human; details: patients treated with 20 mg in CV168-006; data up to 24 weeks
Procedure: as §3, §1, §4
as §2, with “machine. […]” for “machine.”
as §5

[4] = thought to be due to increased fluid retention and fat accumulation; cited from earlier work

COc1ccc(OC(=O)N(CC(=O)O)Cc2ccc(OCCc3nc(-c4ccccc4)oc3C)cc2)cc1 [Compound A, N-[(4-methoxyphenoxy)carbonyl]-N-[[4-[2-(5-methyl-2-phenyl-4-oxazolyl)ethoxy]phenyl]methyl]glycine]
weight gain, carriers of the Valine allele vs homozygous Leucine allele (PPARα residue 162) ([1]; patients of a Phase II trial, Val carriers compared with Leu/Leu): gained significantly less weight
influence of PPAR-alpha SNP1 on weight gain, P (ANOVA) ([1]; patients treated with 20 mg in CV168-006, data up to 24 weeks): 0.039
influence of GRL SNP1 on weight gain, P (ANOVA) [2]: 0.005
influence of GRL SNP1 on lower levels of glycosylated hemoglobin (HbA1C), P (ANOVA) [3]: 0.007
weight gain (side effect) [4]: result in weight gain

CCc1ccc(CCOc2ccc(CC3SC(=O)NC3=O)cc2)nc1 (stereo not shown) [pioglitazone]
weight gain (side effect) [4]: can cause weight gain in some individuals

CN(CCOc1ccc(CC2SC(=O)NC2=O)cc1)c1ccccn1 (stereo not shown) [rosiglitazone]
weight gain (side effect) [4]: can cause weight gain in some individuals
